Measured values from publication PMC8810462, “Targeted fluorescent imaging of a novel FITC-labeled PSMA ligand in prostate cancer” (Amino Acids, 2021).

Experiments:
[1] = tested on: PSMA(+) LNCaP cells; experiment: In vitro confocal fluorescence imaging, cell uptake; type: cell-based, human
Description: (§1) Both the LNCaP cells and PC3 cells were grown in a T25 cell culture flask (Corning Inc., Corning, NY, USA). The cultured LNCaP cells and PC3 cells were inoculated into a confocal dish and placed in an incubator at 37 °C/5% CO2 for 24 h. The medium was changed 2 h before the cell uptake experiment. The medium was removed, the flask rinsed once with PBS, and 5 μg of PSMA-FITC (100 μl) was added to each dish, which was then filled with medium to a final volume of 2 ml. The cells were incubated in an incubator for 60 min, washed 4 times with PBS buffer containing 0.2% BSA. Add 450 μl 4% paraformaldehyde to fix the cells for 10 min then rinse with PBS for four times. Cell nucleus were stained with 450 μl Hoechst33342 for 10 min and rinsed with PBS for four times. Add 500 μl PBS before observation. The cells were observed under confocal microscope (Olympus FV 1000) in dark room. In the blocking group, the LNCaP cells were pretreated with 2-PMPA (20 μg) for 30 min, and then PSMA-FITC was added and incubated for 60 min. The steps are the same as described above in the dark.

[2] = tested on: PSMA(−) PC3 cells; experiment: as above; type: cell-based, human; conditions: 5 μg PSMA-FITC, 37 °C, 60 min
Description: as §1

[3] = tested on: 22Rv1 tumor xenograft; experiment: In vivo fluorescence imaging of tumor-bearing mice; set-up: species or system BALB/c male nude mice; conditions: for tumor-background ratio (TBR): 60 min after injection, n = 5
Description: (§2) All animal procedures were performed in accordance with the protocol approved by the Animal Care and Use Committee of the PLA General Hospital. BALB/c male nude mice (approximately 3–4 weeks old, with a body weight of 13–15 g) were purchased from Charles River Laboratories (Beijing, China). Then, 0.1 ml (approximately 5 × 10^6 cells) of 22Rv1 cell suspension was subcutaneously injected into the right shoulder of each mouse to form an 22Rv1 tumor xenograft. Vernier calipers were used to measure the length and shortest diameter of the tumor, and the tumor volume was estimated according to the formula (V = 1/2 × long diameter × shortest diameter^2). Fluorescence imaging was performed in vivo and in vitro when the tumor volume reached 200–300 mm^3. The PC3 cell planting method is the same as 22Rv1 cell planting method.
(§3) In vivo fluorescence imaging was performed using the French Biospace Lab in vivo optical imaging system, the PHOTON IMAGER OPTIMA multidimensional real-time awake animal in vivo optical imaging system software was used for analysis, and the FITC exclusive filter was used to collect the fluorescence of PSMA-FITC. All images were collected using the same parameters (lamp voltage, filter, exposure height, exposure time, and field of view). The collected images were processed in a unified manner, and the number of photons per second per centimeter squared per steradian (ph/s/cm^2/sr) was used for analysis. 22Rv1 tumor-bearing mice in the nonblocking group (n = 5) and PC3 tumor-bearing mice (n = 5) were injected with PSMA-FITC (0.5 mg/kg) through the tail vein, and fluorescence imaging was performed at different time points after injection. The 22Rv1 tumor-bearing mice (n = 5) in the blocking group were injected with a mixture of 2-PMPA (2 mg/kg) and PSMA-FITC (0.5 mg/kg), and fluorescence imaging was performed 60 min after the injection. Another 9 22Rv1 tumor-bearing mice were divided into three groups (3/group), PSMA-FITC (0.5 mg/kg) was injected into the tail vein, and the mice were euthanized 30, 60, or 120 min after injection. The tumors, tissues, and organs were dissected, and a fluorescence imaging system was used for in vitro imaging. The ROI was delineated, and the average fluorescence intensity reported.
(§4) All measured values are expressed as the means ± standard deviation. Independent sample t-test was used for statistical analysis, and P < 0.05 was considered statistically significant. To clarify tumor contrast, the region of interest (ROI) was delineated, and the mean fluorescence intensity of tumor tissue (T) and background (B) was collected. TBR was used to represent tumor-background contrast. Normal muscle tissue was selected as the background to outline.

[4] = tested on: PSMA (−) PC3 tumor; experiment: In vivo fluorescence imaging of tumor-bearing mice; set-up: species or system BALB/c male nude mice; conditions: 0.5 mg/kg tail vein, compared with 22Rv1 tumor-bearing mice
Description: as §2, §3, §4

[5] = Ex vivo fluorescence imaging of dissected tumors, tissues and organs (distribution); type: in vivo, BALB/c male nude mice; conditions: 22Rv1 tumor-bearing mice, 0.5 mg/kg tail vein, 30, 60, 120 min
Description: as §3

[6] = Acute toxicity test (HE staining of organs); type: in vivo, ICR male mice; conditions: 100 mg/kg tail vein, organs collected 7 days later
Description: ICR male mice (approximately 3–4 weeks old, with a body weight of 12–16 g) were injected with PSMA-FITC (100 mg/kg) through the tail vein, and organs were collected 7 days later. The organs were sectioned and stained with HE. The control group was injected with the same volume of normal saline. The steps are the same as described above.

[7] = 0.5 mg/kg tail vein, 22Rv1 tumor-bearing mice

## O=C(O)CCC(NC(=O)NC(CCCCNC(=O)CCCCCNC(=S)Nc1ccc2c(c1)C(=O)OC21c2ccc(O)cc2Oc2cc(O)ccc21)C(=O)O)C(=O)O (stereo not drawn) [PSMA-FITC]
[1]; LNCaP cells pretreated with 2-PMPA (20 μg) for 30 min, then PSMA-FITC 60 min
  fluorescence signal in cells (confocal microscopy): negligible fluorescence signaling
[1]; LNCaP cells, 5 μg PSMA-FITC, 37 °C, 60 min, no blocking
  fluorescence signal in cells (confocal microscopy): Significant fluorescence signals
[2]
  fluorescence signal in cells (confocal microscopy): negligible fluorescence signaling
[3]; [7]
  time of highest tumor-background contrast after injection: 60 min
  time to tumor targeting after injection: ≤ 30 min
[3]; blocking group, coinjection of 2-PMPA 2 mg/kg with PSMA-FITC 0.5 mg/kg
  tumor-background ratio (TBR): 0.44 ± 0.13
[3]; nonblocking group, PSMA-FITC 0.5 mg/kg tail vein
  tumor-background ratio (TBR): 3.45 ± 0.31
[4]
  tumor uptake of the probe: significantly lower than that of 22Rv1 tumor-bearing mice
[5]
  fluorescence intensity of liver and small intestine (ex vivo): strong fluorescence intensity
  fluorescence intensity of the bladder (ex vivo): obviously at a high level
  uptake by the kidney (ex vivo fluorescence): higher than that measured in other normal organs
[6]
  organ damage (histopathology, HE staining): not damaged
